Data: ChEMBL document CHEMBL2069167, “Synthesis and structure-activity relationship of (1-halo-2-naphthyl) carbamate-based inhibitors of KIAA1363 (NCEH1/AADACL1)” (Bioorg Med Chem Lett, 2012)

What was measured:
[1] = molecular target: T1, Neutral cholesterol ester hydrolase 1 (Homo sapiens, UniProt Q6PIU2); experiment: Inhibition of human KIAA1363 expressed in 293T/17 cells using 2-thioacetyl MAGE as substrate preincubated for 20 mins measured after 1 hr; type: cell-based
T1 sequence (Q6PIU2 whole entry): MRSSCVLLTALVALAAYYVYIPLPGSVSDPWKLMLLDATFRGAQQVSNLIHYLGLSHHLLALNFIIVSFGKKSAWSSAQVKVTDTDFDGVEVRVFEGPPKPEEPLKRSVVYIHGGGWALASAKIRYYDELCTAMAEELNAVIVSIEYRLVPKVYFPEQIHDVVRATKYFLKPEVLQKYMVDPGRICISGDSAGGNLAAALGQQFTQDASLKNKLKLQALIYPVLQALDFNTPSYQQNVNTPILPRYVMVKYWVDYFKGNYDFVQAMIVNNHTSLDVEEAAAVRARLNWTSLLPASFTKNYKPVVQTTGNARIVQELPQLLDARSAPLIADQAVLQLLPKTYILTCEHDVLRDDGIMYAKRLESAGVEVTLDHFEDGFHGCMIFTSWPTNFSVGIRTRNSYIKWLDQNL

[2] = test system: Mus musculus; experiment: Inhibition of KIAA1363 in tumor of SCID mouse xenografted with human SK-OV-3 cells at 100 mg/kg, po after 2 hrs by fluorescence assay; type: functional; details: SK-OV-3, 2 h
[3] = test system: Mus musculus; experiment: Inhibition of KIAA1363 in heart of SCID mouse at 100 mg/kg, ip after 2 hrs by fluorescence assay; type: functional; details: route intraperitoneal
[4] = test system: Mus musculus; experiment: Inhibition of KIAA1363 in tumor of SCID mouse xenografted with human SK-OV-3 cells at 100 mg/kg, ip after 2 hrs by fluorescence assay; type: functional; details: SK-OV-3, ip, route intraperitoneal

SMILES	IC50 [1] [µM]	inhibition in vivo at 100 mg/kg [2] [%]	also measured
CN(C)C(=O)Oc1ccc2ccccc2c1Cl	1.1		
CN(C)C(=O)Oc1ccccc1Br	> 100		
CN(C)C(=O)Oc1ccc2ccccc2c1C#N	> 100		
CN(C)C(=O)Oc1ccc2cc(C#N)ccc2c1Br		14	
CCCc1ccc2c(Br)c(OC(=O)N(C)C)ccc2c1		22	inhibition in vivo at 100 mg/kg [3]: 66%; inhibition in vivo at 100 mg/kg [4]: 64%
CN(C)C(=O)Oc1ccc2cc(Br)ccc2c1Br		18	
CN(C)C(=O)Oc1ccc2ccccc2c1 [NAPHTHALEN-2-YL DIMETHYLCARBAMATE]	> 100		
